Test results: ChEMBL document CHEMBL1671755, “Prevalence, mutation patterns, and effects on protease inhibitor susceptibility of the L76V mutation in HIV-1 protease” (2010)

Legend:
Type in all cases: functional
[1] = tested on: Human immunodeficiency virus 1; experiment: Antiviral activity against Human immunodeficiency virus 1 harboring protease inhibitor resistance-associated mutations and protease L76V mutation in viral protease assessed as fold change in drug susceptibility relative to wild type
[2] = tested on: Human immunodeficiency virus 1; experiment: Antiviral activity against Human immunodeficiency virus 1 harboring M46I and L76V mutations in viral protease assessed as fold change in drug susceptibility relative to wild type
[3] = tested on: Human immunodeficiency virus 1; experiment: Antiviral activity against Human immunodeficiency virus 1 harboring M46I, M46L, I54V, and V82A mutations in viral protease assessed as fold change in drug susceptibility relative to wild type
[4] = tested on: Human immunodeficiency virus 1; experiment: Antiviral activity against Human immunodeficiency virus 1 harboring M46I mutation in viral protease assessed as fold change in drug susceptibility relative to wild type
[5] = tested on: Human immunodeficiency virus 1; experiment: Antiviral activity against Human immunodeficiency virus 1 harboring M46I, M46L, I54V, V82A and L76V mutations in viral protease assessed as fold change in drug susceptibility relative to wild type
[6] = tested on: Human immunodeficiency virus 1; experiment: Antiviral activity against Human immunodeficiency virus 1 harboring protease inhibitor resistance-associated mutations assessed as fold change in drug susceptibility relative to wild type

| Structure (SMILES) | fold change (FC) [1] | fold change (FC) [2] | fold change (FC) [3] | fold change (FC) [4] | fold change (FC) [5] | fold change (FC) [6] |
| --- | --- | --- | --- | --- | --- | --- |
| CC(C)CN(C[C@@H](O)[C@H](Cc1ccccc1)NC(=O)O[C@H]1CCOC1)S(=O)(=O)c1ccc(N)cc1 [AMPRENAVIR] | 70.9 | 6.7 | 3.7 | 1.5 | 19.3 | 21.1 |
| COC(=O)N[C@H](C(=O)N[C@@H](Cc1ccccc1)[C@@H](O)CN(Cc1ccc(-c2ccccn2)cc1)NC(=O)[C@@H](NC(=O)OC)C(C)(C)C)C(C)(C)C [ATAZANAVIR] | 11.3 | 0.9 | 5.7 | 4.3 | 2.1 | 75.2 |
| CC(C)CN(C[C@@H](O)[C@H](Cc1ccccc1)NC(=O)O[C@H]1CO[C@H]2OCC[C@H]21)S(=O)(=O)c1ccc(N)cc1 [DARUNAVIR] | 37.4 | 2.8 | 1.1 | 0.9 | 4.2 | 8.5 |
| CC(C)(C)NC(=O)[C@@H]1CN(Cc2cccnc2)CCN1C[C@@H](O)C[C@@H](Cc1ccccc1)C(=O)N[C@H]1c2ccccc2C[C@H]1O.O [INDINAVIR] | 60.1 | 8.6 | 9.7 | 3.4 | 37.4 | 40.1 |
| Cc1cccc(C)c1OCC(=O)N[C@@H](Cc1ccccc1)[C@@H](O)C[C@H](Cc1ccccc1)NC(=O)[C@H](C(C)C)N1CCCNC1=O [LOPINAVIR] | 174.2 | 9.9 | 28 | 1.6 | 163.1 | 46.1 |
| Cc1c(O)cccc1C(=O)N[C@@H](CSc1ccccc1)[C@H](O)CN1C[C@H]2CCCC[C@H]2C[C@H]1C(=O)NC(C)(C)C [NELFINAVIR] | 36.1 | 2.5 | 13.9 | 7.9 | 14.8 | 78.3 |
| CC(C)c1nc(CN(C)C(=O)N[C@H](C(=O)N[C@@H](Cc2ccccc2)C[C@H](O)[C@H](Cc2ccccc2)NC(=O)OCc2cncs2)C(C)C)cs1 [RITONAVIR] | 113.2 | 2.7 | 37.6 | 2.2 | 63.6 | 129.7 |
| CC(C)(C)NC(=O)[C@@H]1C[C@@H]2CCCC[C@@H]2CN1C[C@@H](O)[C@H](Cc1ccccc1)NC(=O)[C@H](CC(N)=O)NC(=O)c1ccc2ccccc2n1 [SAQUINAVIR] | 43.5 | 0.7 | 2.8 | 1.2 | 3.2 | 197.4 |
| CCC[C@@]1(CCc2ccccc2)CC(O)=C([C@H](CC)c2cccc(NS(=O)(=O)c3ccc(C(F)(F)F)cn3)c2)C(=O)O1 [TIPRANAVIR] | 3.6 | 0.8 | 1.7 | 1.2 | 1.2 | 6.7 |
